Data set [1] can be described thus: Cytotoxicity on host cells, mean over the host cell lines. To be noted: human, bovine, hamster, monkey.
A further data set has as its system RSV. The note with it: read-out: EC50 (anti-RSV), cited from earlier work.
Data set [2] concerns HSV-1 (Herpes Simplex virus, Type-1). It is filed as cell-based.
A further data set deals with BVDV. The note with it: read-out: EC50 (anti-BVDV); cited from earlier work.

Like-named read-outs stand apart in the source and are kept apart here.

In general, CC50 refers to the concentration giving 50% cytotoxicity. As for `Fc1ccc(/N=N/c2ccc(NC[C@@H]3CCCN4CCCC[C@H]34)c3c2CCCC3)c(F)c1` [Compound 12], in data set [1], half-maximal cytotoxicity (CC50) was put at 21.5 µM.

`CN(C)CCCN(/N=N/c1cc(F)ccc1F)c1ccccc1` [Compound 29, 1-[1-(2,5-Difluorophenyl)-3-phenyltriazen-3-yl]-N,N-dimethyl-3-propanamine]: the 50% cytotoxic concentration (CC50) in data set [1] was 17.5 µM. In general, EC50 refers to the concentration at which the effect is half-maximal. Turning to `O=C(Nc1ccccc1F)N[C@H]1N=C(c2ccccc2)c2ccccc2NC1=O` [RSV-604], in the data set with RSV (S-enantiomer), the 50% effective concentration (EC50) is 0.9 µM. On to `CN(C)CCCNc1ccc(/N=N/c2cccc([N+](=O)[O-])c2)cc1.Cl` [Compound 2, N,N-Dimethyl-N′-[4-(3-nitrophenylazo)phenyl]propane-1,3-diamine], for which the “S. I. (selectivity index), HSV-1” value in data set [2] was determined as 4.2. “3-[(dipropylaminoethyl)thio]-5H-1,2,4-triazino[5,6-b]indole [VP32947]”: the concentration giving a half-maximal response (EC50) with BVDV was 0.03 to 0.04 µM. Take `O=c1n(Cc2nc3ccccc3n2CCCCO)c2cnccc2n1C1CC1` [BMS-433771]: the EC50 with RSV (fusion inhibitor) is 0.021 µM. For `Brc1ccc(Cn2ccc3nc(-c4ccccc4)nc-3c2)cc1` [BPIP, 5-[4-bromobenzyl]-2-phenyl-5H-imidazo[4,5-c]pyridine], the concentration for a half-maximal effect (EC50) in the data set with BVDV was 0.03 to 0.04 µM.

(Values after publication PMC7127694 (Bioorganic & Medicinal Chemistry, 2009).)
